Laboratory results reported in patent US20180098959A1, “METHODS FOR TREATING CANCER” (BOSTON BIOMEDICAL, INC., priority 2015, published 2018).
Entries after “also recorded” stand apart in the source; their conditions may differ. Like-named read-outs stand apart in the source and are kept apart here.

Columns and labels:
cancer stem cells = experiment: effects on cancer stem cells with and without 5-fluorouracil; type: cell-based; details: FIG. 7
From the text: The effects on cancer stem cells of 2-acetylnaphtho[2,3-b]furan-4,9-dione was also examined with and without 5-fluorouracil by using methods similar to those disclosed in U.S. pre-grant Publication No. 2012/0252763, Example 3.

FaDu cancer stem cells = experiment: stemness gene expression versus chemo- and targeted therapeutics; type: cell-based; details: 24 hours, 2-acetylnaphtho[2,3-b]furan-4,9-dione 2 mM, sunitinib 20 mM, gemcitabine 2 mM, carboplatin 32 mM, FIGS. 4(A)-(D)
Method: FIGS. 4(A)-(D) depict FaDu cancer stem cells that were treated for 24 hours with DMSO and: (i) 2-acetylnaphtho[2,3-b]furan-4,9-dione (2 mM) (FIG. 4(A)), (ii) sunitinib (20 mM) (FIG. 4(B)), (iii) gemcitabine (2 mM) (FIG. 4(C)), or (iv) carboplatin (32 mM) (FIG. 4(D)).

hepatocellular carcinoma = experiment: combination with FOLFOX, hepatocellular carcinoma patients; type: in vivo, human; details: Chemo Backbone FOLFOX
Method: The effects of 2-acetylnaphtho[2,3-b]furan-4,9-dione in combination with FOLFOX were assessed in adult patients with hepatocellular carcinoma in a clinical study.
Patients who were pretreated with 1 and 4 lines of prior treatment, respectively, received oral administration of 2-acetylnaphtho[2,3-b]furan-4,9-dione twice daily together with FOLFOX. For example, 2-acetylnaphtho[2,3-b]furan-4,9-dione was administered at a dose of 240 mg BID in combination with FOLFOX. Oxaliplatin 85 mg/m^2 together with leucovorin 400 mg/m^2 were administered intravenously. 5-FU 400 mg/m^2 bolus was administered intravenously immediately following oxaliplatin/leucovorin infusion, followed by 5-FU 1200 mg/m^2/day (total 2400 mg/m^2 over 46-48 hours) continuous intravenous infusion. This regimen was repeated every 14 days thereafter or until progression of disease, unacceptable toxicity, or other discontinuation criterion was met.

p-Stat3 and β-catenin = experiment: cancer stem cell markers in cancer xenograft models (immunofluorescence); type: in vivo, athymic nude mice; details: human colon cancer xenograft Tumor (SW480) in nude mice, tumors harvested after first dosing; FIG. 5
Method: The effects of 2-acetylnaphtho[2,3-b]furan-4,9-dione on cancer stem cell markers was also examined in cancer xenograft models with and without irinotecan. Human cancer cells were subcutaneously implanted into the right flank of 5-7 weeks old female athymic nude mice. When tumor size reached 200 mm^3, animals were treated with 2-acetylnaphtho[2,3-b]furan-4,9-dione, irinotecan, or a combination of 2-acetylnaphtho[2,3-b]furan-4,9-dione and irinotecan. Tumors were harvested after first dosing.
The harvested tissues were fixed in 3.7% neutral buffered formaldehyde at 4° C. for overnight. The paraffin was embedded, cut to about 5 microns, and affixed onto positively charged slides. After being baked and de-paraffinized, the slides with tumor or control tissues were incubated in 10 mM Sodium Citrate (pH 6.0) for 10 minutes. After antigen retrieval, slides were probed with primary antibodies P-STAT3 (rabbit, Cell Signaling, 1:100), 13-Catenine (mouse, Santa Cruz, 1:400) at 4° C. overnight, and then Alexa Fluor fluorescent dyes-conjugated secondary antibodies (1:500, Invitrogen). After mounting with ProLong mounting medium with DAPI (Invitrogen), the slides were examined under a Zeiss fluorescence microscope with 20× objective, and analyzed with Zen software.

[1] = tested on: esophageal adenocarcinoma; experiment: combination with CAPDX regimen, esophageal adenocarcinoma patients; type: in vivo, human; details: Chemo Backbone CAPOX, 0 prior lines
Method: The effects of 2-acetylnaphtho[2,3-b]furan-4,9-dione in combination with capecitabine as part of a CAPDX regimen was assessed in adult patients with esophageal adenocarcinoma.
Four patients aged 58-82 who were pretreated with 0-3 lines of prior treatment received oral administration of 2-acetylnaphtho[2,3-b]furan-4,9-dione twice daily together with CAPDX. For example, 2-acetylnaphtho[2,3-b]furan-4,9-dione was administered at a dose of 240 mg BID or 480 mg BID in combination with CAPDX until progression of disease, unacceptable toxicity, or other discontinuation criterion was met. CAPDX was administered orally (capecitabine) and IV (oxaliplatin). Capecitabine 850 mg/m^2 was administered orally twice-daily for 14 consecutive days and repeated every 21 days or until progression of disease, unacceptable toxicity, or other discontinuation criterion was met. Oxaliplatin 130 mg/m^2 was administered IV and repeated every 21 days thereafter. If capecitabine was tolerated at the 850 mg/m^2 twice daily dose, dosage was increased to 1000 mg/m^2 twice daily as tolerated after the first cycle.

FaDu sphere cultures = experiment: qPCR cancer stem cell array, gene expression after treatment; type: cell-based; design: % Change ATM gene expression / % Change WEE1 gene expression / % Change ACTB gene expression / % Change MERTK gene expression / % Change FGFR2 gene expression / % Change EPCAM gene expression / % Change NOTCH2 gene expression / % Change DDR1 gene expression / % Change STAT3 gene expression / % Change LATS1 gene expression / % Change GSK3B gene expression / % Change TWIST2 gene expression / % Change ITGA2 gene expression / % Change ENG gene expression / % Change PLAUR gene expression / % Change SMO gene expression / % Change DACH1 gene expression / % Change EGF gene expression / % Change TGFBR1 gene expression / % Change ALCAM gene expression / % Change ALDH1A1 gene expression / % Change MAML1 gene expression / % Change HDAC1 gene expression / % Change RPLP0 gene expression / % Change WWC1 gene expression / % Change CD44 gene expression / % Change TAZ gene expression / % Change ITGA6 gene expression / % Change HPRT1 gene expression / % Change JAG1 gene expression / % Change ITGB1 gene expression / % Change IKBKB gene expression / % Change ID1 gene expression / % Change AXL gene expression / % Change DNMT1 gene expression / % Change ITGA4 gene expression / % Change KITLG gene expression / % Change ETFA gene expression / % Change IL8 gene expression / % Change JAK2 gene expression / % Change FOXP1 gene expression / % Change MYC gene expression / % Change NANOG gene expression / % Change YAP1 gene expression / % Change FLOT2 gene expression / % Change KLF17 gene expression / % Change BMI1 gene expression / % Change CHEK1 gene expression / % Change CD34 gene expression / % Change NOTCH1 gene expression / % Change LIN28A gene expression / % Change ATXN1 gene expression / % Change MUC1 gene expression / % Change POU5F1 gene expression / % Change ERBB2 gene expression / % Change CD24 gene expression / % Change PECAM1 gene expression / % Change SIRT1 gene expression / % Change NFKB1 gene expression: dose or concentration left out as unconfirmed
Method: Changes in gene expression following treatment with 2-acetylnaphtho[2,3-b]furan-4,9-dione were evaluated using a cancer stem cell PCR array.
FaDu sphere cultures were treated for 6 hours with DMSO (control) or 2-acetylnaphtho[2,3-b]furan-4,9-dione at 2 mM. RNA was isolated, reversed transcribed, and the resulting cDNA was analyzed using a qPCR cancer stem cell array. Glyceraldehyde 3-phosphate dehydrogenase (GAPDH) was used as a housekeeping gene to normalize the data.

mCRC = details: Single Agent, panitumumab value for K-Ras WT, cited from earlier work
[2] = FaDu sphere cultures, 6 hours, GAPDH-normalized, vs DMSO control

5-fluorouracil and 2-acetylnaphtho[2,3-b]furan-4,9-dione
effect of the combination on cancer stem cells / cancer stem cell growth (cancer stem cells; versus 5-fluorouracil alone and both agents alone): attenuated; also recorded: greater than additive effect

O=c1[nH]cc(F)c(=O)[nH]1 [5-fluorouracil, reference compound]
increase in the number of cancer stem cells compared to control cells (cancer stem cells): approximately 3 fold
expression of self-renewal / CSC genes (β-Catenin, Nanog, Smo, Sox2) (FaDu cancer stem cells): increased CSC gene expression in certain cases

CC(=O)c1cc2c(o1)C(=O)c1ccccc1C2=O [2-acetylnaphtho[2,3-b]furan-4,9-dione]
Best Response, regression (hepatocellular carcinoma; Patient 0089, BBI608 240 mg bid, 1 prior line): 9%
Best Response, regression (hepatocellular carcinoma; Patient 0121, BBI608 240 mg bid, 4 prior lines): 9%
expression of p-Stat3 and β-catenin stem cell markers (p-Stat3 and β-catenin): dramatically reduced expression
expression of self-renewal / CSC genes (β-Catenin, Nanog, Smo, Sox2) (FaDu cancer stem cells): decreased expression
Best Response, regression ([1]; Patient 0012, BBI608 240 mg bid): 50%
Best Response, regression ([1]; Patient 0021, BBI608 480 mg bid): 24%
% Change ACTB gene expression (FaDu sphere cultures; [2]): −24.49%
% Change ALCAM gene expression (FaDu sphere cultures; [2]): −36.13%
% Change ALDH1A1 gene expression (FaDu sphere cultures; [2]): −18.18%
% Change ATM gene expression (FaDu sphere cultures; [2]): −68.65%
% Change ATXN1 gene expression (FaDu sphere cultures; [2]): −45.26%
% Change AXL gene expression (FaDu sphere cultures; [2]): −48.50%
% Change B2M gene expression (FaDu sphere cultures; [2]): −27.69%
% Change BMI1 gene expression (FaDu sphere cultures; [2]): −47.40%
% Change CD24 gene expression (FaDu sphere cultures; [2]): −26.46%
% Change CD34 gene expression (FaDu sphere cultures; [2]): −88.18%
% Change CD44 gene expression (FaDu sphere cultures; [2]): −35.44%
% Change CHEK1 gene expression (FaDu sphere cultures; [2]): −28.88%
% Change DACH1 gene expression (FaDu sphere cultures; [2]): −36.55%
% Change DDR1 gene expression (FaDu sphere cultures; [2]): −38.59%
% Change DNMT1 gene expression (FaDu sphere cultures; [2]): −32.09%
% Change EGF gene expression (FaDu sphere cultures; [2]): −19.07%
% Change ENG gene expression (FaDu sphere cultures; [2]): −37.62%
% Change EPCAM gene expression (FaDu sphere cultures; [2]): −22.87%
% Change ERBB2 gene expression (FaDu sphere cultures; [2]): −43.81%
% Change ETFA gene expression (FaDu sphere cultures; [2]): −31.12%
% Change FGFR2 gene expression (FaDu sphere cultures; [2]): −41.18%
% Change FLOT2 gene expression (FaDu sphere cultures; [2]): −29.19%
% Change FOXP1 gene expression (FaDu sphere cultures; [2]): −29.76%
% Change GSK3B gene expression (FaDu sphere cultures; [2]): −38.06%
% Change HDAC1 gene expression (FaDu sphere cultures; [2]): −36.10%
% Change HPRT1 gene expression (FaDu sphere cultures; [2]): −33.81%
% Change ID1 gene expression (FaDu sphere cultures; [2]): −12.68%
% Change IKBKB gene expression (FaDu sphere cultures; [2]): −32.11%
% Change IL8 gene expression (FaDu sphere cultures; [2]): −7.62%
% Change ITGA2 gene expression (FaDu sphere cultures; [2]): −60.71%
% Change ITGA4 gene expression (FaDu sphere cultures; [2]): −11.52%
% Change ITGA6 gene expression (FaDu sphere cultures; [2]): −54.63%
% Change ITGB1 gene expression (FaDu sphere cultures; [2]): −50.45%
% Change JAG1 gene expression (FaDu sphere cultures; [2]): −14.24%
% Change JAK2 gene expression (FaDu sphere cultures; [2]): −47.94%
% Change KITLG gene expression (FaDu sphere cultures; [2]): −47.99%
% Change KLF17 gene expression (FaDu sphere cultures; [2]): −90.18%
% Change LATS1 gene expression (FaDu sphere cultures; [2]): −60.75%
% Change LIN28A gene expression (FaDu sphere cultures; [2]): −87.52%
% Change MAML1 gene expression (FaDu sphere cultures; [2]): −52.82%
% Change MERTK gene expression (FaDu sphere cultures; [2]): −65.78%
% Change MUC1 gene expression (FaDu sphere cultures; [2]): −27.42%
% Change MYC gene expression (FaDu sphere cultures; [2]): −3.91%
% Change NANOG gene expression (FaDu sphere cultures; [2]): −93.34%
% Change NFKB1 gene expression (FaDu sphere cultures; [2]): −25.54%
% Change NOTCH1 gene expression (FaDu sphere cultures; [2]): −46.24%
% Change NOTCH2 gene expression (FaDu sphere cultures; [2]): −64.37%
% Change PECAM1 gene expression (FaDu sphere cultures; [2]): −70.26%
% Change PLAUR gene expression (FaDu sphere cultures; [2]): −20.64%
% Change POU5F1 gene expression (FaDu sphere cultures; [2]): −77.31%
% Change RPLP0 gene expression (FaDu sphere cultures; [2]): −17.48%
% Change SIRT1 gene expression (FaDu sphere cultures; [2]): −43.35%
% Change SMO gene expression (FaDu sphere cultures; [2]): −55.56%
% Change STAT3 gene expression (FaDu sphere cultures; [2]): −22.87%
% Change TAZ gene expression (FaDu sphere cultures; [2]): −15.09%
% Change TGFBR1 gene expression (FaDu sphere cultures; [2]): −53.34%
% Change TWIST2 gene expression (FaDu sphere cultures; [2]): −21.59%
% Change WEE1 gene expression (FaDu sphere cultures; [2]): −42.86%
% Change WWC1 gene expression (FaDu sphere cultures; [2]): −51.64%
% Change YAP1 gene expression (FaDu sphere cultures; [2]): −47.45%
expression of cancer stem cell markers and genes such as Nanog, Axl, Atm, and Bmi-1 (FaDu sphere cultures; cancer stem cell PCR array): downregulated

CNC(=O)c1cc(Oc2ccc(NC(=O)Nc3ccc(Cl)c(C(F)(F)F)c3)c(F)c2)ccn1 [regorafenib]
expression of self-renewal / CSC genes (β-Catenin, Nanog, Smo, Sox2) (FaDu cancer stem cells): increased CSC gene expression in certain cases

CCCCCOC(=O)Nc1nc(=O)n([C@@H]2O[C@H](C)[C@@H](O)[C@H]2O)cc1F [Capecitabine, capecitabine]
Historical DCR (in Evaluable patients with mCRC) (mCRC): 15%
Historical DCR (in Evaluable patients with mCRC) (mCRC; listed as capecitabine): 15%
